The record followed here is PubChem BioAssay AID248 (DTP/NCI, 2004).

The test concerns L1210 leukemia ip in BDF1 mice, survival T/C. Description: NCI In Vivo Anticancer Drug Screen. Data for tumor model L1210 Leukemia (intraperitoneal) in B6D2F1 (BDF1) mice. The following applies: endpoint: mean survival time, higher = longer survival. The gist of the method: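 Read-out is survival time, reported as the treated-group measurement over the vehicle-control measurement.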

Setting [1] is: dose: 100.0 mg/kg/injection, schedule: Q01DX009 (ip), vehicle: saline.
[2] abbreviates: dose: 100.0 mg/kg/injection, schedule: Q04DX003 (ip), vehicle: saline.
[3] abbreviates: dose: 200.0 mg/kg/injection, schedule: Q04DX003 (ip), vehicle: saline.
The mark [4] stands for this setting: dose: 400.0 mg/kg/injection, schedule: Q04DX003 (ip), vehicle: saline.
Setting [5] is: dose: 100.0 mg/kg/injection, schedule: Q01DX009 (ip), vehicle: saline with Tween-80.
Where [6] appears, read: dose: 200.0 mg/kg/injection, schedule: Q01DX009 (ip), vehicle: saline with Tween-80.
Where [7] appears, read: dose: 400.0 mg/kg/injection, schedule: Q01DX009 (ip), vehicle: saline with Tween-80.
The mark [8] stands for this setting: dose: 100.0 mg/kg/injection, schedule: Q01DX001 (ip), vehicle: saline.
Setting [9] is: dose: 200.0 mg/kg/injection, schedule: Q01DX001 (ip), vehicle: saline.
Setting [10] is: dose: 400.0 mg/kg/injection, schedule: Q01DX001 (ip), vehicle: saline.
Where [11] appears, read: dose: 100.0 mg/kg/injection, schedule: Q04DX003 (ip), vehicle: saline with Tween-80.
Where [12] appears, read: dose: 200.0 mg/kg/injection, schedule: Q04DX003 (ip), vehicle: saline with Tween-80.
Where [13] appears, read: dose: 400.0 mg/kg/injection, schedule: Q04DX003 (ip), vehicle: saline with Tween-80.

Each structure is given as a SMILES string. “And” between values parts separate entries of the source, which are not always exact repeats. Identical values can stand only once. Toxic doses and inconclusive results are not listed.

For the compound `O=C(c1ccccc1)N1CCC(CCO)C(O)C1Cc1c[nH]c2ccccc12` (stereo not given), the T/C is, setting by setting: under setting [1], 96 % of control; under setting [2], 100 % of control; (dose: 200.0 mg/kg/injection, schedule: Q01DX009 (ip), vehicle: saline) 93 % of control; under setting [3], 94 % of control; (dose: 400.0 mg/kg/injection, schedule: Q01DX009 (ip), vehicle: saline) 98 % of control; under setting [4], 92 % of control.

Turning to `OCCNCc1ccccc1`, the T/C by setting is: under setting [5], 93 % of control; (dose: 100.0 mg/kg/injection, schedule: Q01DX009 (ip), vehicle: water) 95 % of control; (dose: 100.0 mg/kg/injection, schedule: Q04DX003 (ip), vehicle: water) 104 % of control; under setting [6], 102 % of control; (dose: 200.0 mg/kg/injection, schedule: Q01DX009 (ip), vehicle: water) 103 % of control; (dose: 200.0 mg/kg/injection, schedule: Q04DX003 (ip), vehicle: water) 102 % of control. Besides, the T/C under setting [7] is 86 % of control; the T/C (dose: 400.0 mg/kg/injection, schedule: Q01DX009 (ip), vehicle: water) is 105 % of control; the T/C (dose: 400.0 mg/kg/injection, schedule: Q04DX003 (ip), vehicle: water) is 102 % of control.

With `Nc1ncc(N)c(N)n1`, the T/C runs as follows: (dose: 21.0 mg/kg/injection, schedule: Q01DX Z (ip), vehicle: saline) 101 % of control; (dose: 25.0 mg/kg/injection, schedule: Q01DX Z (ip), vehicle: carboxymethylcellulose (CMC)) 109 % of control; (dose: 31.0 mg/kg/injection, schedule: Q01DX Z (ip), vehicle: saline) 106 % of control; (dose: 47.0 mg/kg/injection, schedule: Q01DX Z (ip), vehicle: saline) 121 % of control; (dose: 50.0 mg/kg/injection, schedule: Q01DX001 (ip), vehicle: saline) 106 % of control; under setting [8], 103 % of control. In addition, the T/C by setting is: under setting [2], 112 % of control; (dose: 117.0 mg/kg/injection, schedule: Q01DX009 (ip), vehicle: saline with Tween-80) 116 % of control; (dose: 125.0 mg/kg/injection, schedule: Q01DX001 (ip), vehicle: carboxymethylcellulose (CMC)) 101 % of control and 118 % of control; (dose: 125.0 mg/kg/injection, schedule: Q## X001 (ip), vehicle: carboxymethylcellulose (CMC)) 110 % of control; under setting [9], 103 % of control; under setting [3], 117 % of control. The T/C reads like this: (dose: 240.0 mg/kg/injection, schedule: Q04DX003 (ip), vehicle: saline) 111 % of control; (dose: 250.0 mg/kg/injection, schedule: Q01DX001 (ip), vehicle: carboxymethylcellulose (CMC)) 102 % of control and 108 % of control; (dose: 250.0 mg/kg/injection, schedule: Q## X001 (ip), vehicle: carboxymethylcellulose (CMC)) 111 % of control; (dose: 360.0 mg/kg/injection, schedule: Q01DX Z (ip), vehicle: carboxymethylcellulose (CMC)) 159 % of control; (dose: 360.0 mg/kg/injection, schedule: Q04DX003 (ip), vehicle: saline) 108 % of control; under setting [10], 97 % of control. The T/C runs as follows: under setting [4], 118 % of control; (dose: 500.0 mg/kg/injection, schedule: Q01DX001 (ip), vehicle: carboxymethylcellulose (CMC)) 98 % of control and 117 % of control; (dose: 500.0 mg/kg/injection, schedule: Q01DX Z (ip), vehicle: carboxymethylcellulose (CMC)) 160 % of control; (dose: 500.0 mg/kg/injection, schedule: Q## X001 (ip), vehicle: carboxymethylcellulose (CMC)) 105 % of control; (dose: 810.0 mg/kg/injection, schedule: Q01DX Z (ip), vehicle: saline) 86 % of control; (dose: 1000.0 mg/kg/injection, schedule: Q01DX001 (ip), vehicle: carboxymethylcellulose (CMC)) 102 % of control and 112 % of control. For the same compound, the T/C (dose: 1000.0 mg/kg/injection, schedule: Q## X001 (ip), vehicle: carboxymethylcellulose (CMC)) was 98 % of control.

With `CCCCCC[Si](Br)(CCCCCC)CCCCCC`, the T/C (dose: 25.0 mg/kg/injection, schedule: Q01DX009 (ip), vehicle: saline) is 102 % of control; the T/C (dose: 50.0 mg/kg/injection, schedule: Q01DX009 (ip), vehicle: saline) was 102 % of control; the T/C under setting [8] is 98 % of control; the T/C under setting [1] was 98 % of control; the T/C under setting [9] was 93 % of control; the T/C under setting [10] was 96 % of control.

Turning to `ClC(Cl)(Cl)C1OCOC(C(Cl)(Cl)Cl)O1` (stereo not given), the T/C was 98 % of control under setting [11], 96 % of control under setting [12] and 101 % of control under setting [13].

For the compound `NOC(=O)C1C(c2ccccc2)C1(c1ccccc1)c1ccccc1` (stereo not given), the T/C (dose: 100.0 mg/kg/injection, schedule: Q01DX001 (ip), vehicle: steriod suspending solution) was 104 % of control; the T/C (dose: 200.0 mg/kg/injection, schedule: Q01DX001 (ip), vehicle: steriod suspending solution) is 95 % of control; the T/C (dose: 400.0 mg/kg/injection, schedule: Q01DX001 (ip), vehicle: steriod suspending solution) was 117 % of control.

As for `O=C(NCCO)NCCO`, the T/C runs as follows: under setting [2], 95 % of control; under setting [3], 98 % of control; under setting [4], 123 % of control.

For `CC(=O)C1(O)Cc2c(O)c3c(c(O)c2C(OC2CC(N)C(O)C(C)O2)C1)C(=O)c1ccccc1C3=O` (stereo not given), the T/C is 119 % of control (dose: 0.1 mg/kg/injection, schedule: Q01DX009 (ip), vehicle: saline) and 92 % of control (dose: 0.8 mg/kg/injection, schedule: Q01DX009 (ip), vehicle: saline).

For the compound `C=C1c2ccccc2N(C)C1(COc1ccc(Cl)cc1)OC(=O)c1cccc(Cl)c1` (stereo not given), the T/C (dose: 100.0 mg/kg/injection, schedule: Q04DX002 (ip), vehicle: saline) was 88 % of control; the T/C (dose: 200.0 mg/kg/injection, schedule: Q04DX002 (ip), vehicle: saline) is 98 % of control; the T/C (dose: 400.0 mg/kg/injection, schedule: Q04DX002 (ip), vehicle: saline) was 98 % of control.

`O=C(Nc1ccc(Cl)c(Cl)c1)OCCCl`: the T/C is, setting by setting: (dose: 75.0 mg/kg/injection, schedule: Q01DX001 (ip), vehicle: saline) 89 % of control; (dose: 150.0 mg/kg/injection, schedule: Q01DX001 (ip), vehicle: saline) 109 % of control.

Turning to `O=C(O)c1c(Br)c(Br)c(Br)c(Br)c1C(=O)Nc1cccc2c(O)cccc12`, the T/C was 110 % of control (dose: 100.0 mg/kg/injection, schedule: Q01DX009 (ip), vehicle: Klucel (hydroxypropylcellulose) (HPC)); 107 % of control (dose: 200.0 mg/kg/injection, schedule: Q01DX009 (ip), vehicle: Klucel (hydroxypropylcellulose) (HPC)); 96 % of control (dose: 400.0 mg/kg/injection, schedule: Q01DX009 (ip), vehicle: Klucel (hydroxypropylcellulose) (HPC)).

Take `CC/C(C)=C\CC/C(C)=C/COc1cccc(C(C)=O)c1`: the T/C was 94 % of control (dose: 75.0 mg/kg/injection, schedule: Q01DX009 (ip), vehicle: carboxymethylcellulose (CMC)); 90 % of control (dose: 150.0 mg/kg/injection, schedule: Q01DX009 (ip), vehicle: carboxymethylcellulose (CMC)); 92 % of control (dose: 300.0 mg/kg/injection, schedule: Q01DX009 (ip), vehicle: carboxymethylcellulose (CMC)).

With `COc1ccc([N+](=O)[O-])cc1NS(=O)(=O)c1cccc([N+](=O)[O-])c1`, the T/C is 95 % of control (dose: 100.0 mg/kg/injection, schedule: Q01DX001 (ip), vehicle: saline with Tween-80); 89 % of control and 92 % of control under setting [5]; 97 % of control and 101 % of control (dose: 100.0 mg/kg/injection, schedule: Q04DX002 (ip), vehicle: saline with Tween-80); 97 % of control under setting [11]; 91 % of control (dose: 200.0 mg/kg/injection, schedule: Q01DX001 (ip), vehicle: saline with Tween-80); 92 % of control under setting [6]. Further, the T/C reads like this: (dose: 200.0 mg/kg/injection, schedule: Q04DX002 (ip), vehicle: saline with Tween-80) 95 % of control and 97 % of control; under setting [12], 97 % of control; (dose: 400.0 mg/kg/injection, schedule: Q01DX001 (ip), vehicle: saline with Tween-80) 91 % of control; under setting [7], 106 % of control; (dose: 400.0 mg/kg/injection, schedule: Q04DX002 (ip), vehicle: saline with Tween-80) 94 % of control and 101 % of control; under setting [13], 90 % of control.
